Activity data for 1 compound are collected here from ChEMBL document CHEMBL4304811, “Development of a Water-Soluble Indolylmaleimide Derivative IM-93 Showing Dual Inhibition of Ferroptosis and NETosis” (ACS Med Chem Lett, 2019).

SMILES strings stand for the structures.

Test [1] addresses Calcium/calmodulin-dependent protein kinase type II subunit delta (Homo sapiens) (UniProt Q13557). Briefly: Binding affinity to wild-type human partial length CAMK2D (M1 to E329 residues) expressed in bacterial expression system assessed as residual binding level at 10 uM by Kinomescan method relative to control.
The target in test [2] is Mitogen-activated protein kinase kinase kinase kinase 2 (Homo sapiens) (UniProt Q12851). The test is described as follows: Binding affinity to wild-type human partial length MAP4K2 (M1 to G318 residues) expressed in mammalian expression system assessed as residual binding level at 10 uM by Kinomescan method relative to control.
The target in test [3] is RAC-gamma serine/threonine-protein kinase (Homo sapiens) (UniProt Q9Y243). The test is described as follows: Binding affinity to wild-type human partial length AKT3 expressed in bacterial expression system assessed as residual binding level at 10 uM by Kinomescan method relative to control.
Test [4] deals with Phosphatidylinositol 4,5-bisphosphate 3-kinase catalytic subunit alpha isoform (Homo sapiens), P42336 [E542K]. Briefly: Binding affinity to human partial length PIK3CA E542K mutant (R108 to N1068 residues) expressed in mammalian expression system assessed as residual binding level at 10 uM by Kinomescan method relative to control.
Test [5] has as its system Epidermal growth factor receptor (Homo sapiens), P00533 [T790M]. The test is described as follows: Binding affinity to human partial length EGFR T790M mutant (R669 to G1022 residues) expressed in mammalian expression system assessed as residual binding level at 10 uM by Kinomescan method relative to control.
Test [6] addresses Phosphatidylinositol 5-phosphate 4-kinase type-2 beta (Homo sapiens) (UniProt P78356). The test is described as follows: Binding affinity to wild-type human full length PIP5K2B (M1 to T416 residues) expressed in bacterial expression system assessed as residual binding level at 10 uM by Kinomescan method relative to control.
The subject of test [7] is Receptor-type tyrosine-protein kinase FLT3 (Homo sapiens), P36888 [UNDEFINED MUTATION]. Briefly: Binding affinity to human partial length FLT3 ITD mutant expressed in bacterial expression system assessed as residual binding level at 10 uM by Kinomescan method relative to control.
For test [8], the target named is Tyrosine-protein kinase Mer (Homo sapiens) (UniProt Q12866). The test is described as follows: Binding affinity to wild-type human partial length MERTK (R557 to L884 residues) expressed in bacterial expression system assessed as residual binding level at 10 uM by Kinomescan method relative to control.
Test [9] addresses Protein-tyrosine kinase 2-beta (Homo sapiens) (UniProt Q14289). The test is described as follows: Binding affinity to wild-type human full length PYK2 (M1 to E967 residues) expressed in bacterial expression system assessed as residual binding level at 10 uM by Kinomescan method relative to control.
For test [10], the target named is Serine/threonine-protein kinase PknB (Mycobacterium tuberculosis) (UniProt P9WI81). The test is described as follows: Binding affinity to wild-type Mycobacterium tuberculosis partial length PKNB (M1 to G279 residues) expressed in mammalian expression system assessed as residual binding level at 10 uM by Kinomescan method relative to control.
Test [11] addresses Mitogen-activated protein kinase 7 (Homo sapiens) (UniProt Q13164). Briefly: Binding affinity to wild-type human partial length ERK5 (M1 to A409 residues) expressed in bacterial expression system assessed as residual binding level at 10 uM by Kinomescan method relative to control.
Test [12] concerns the target Insulin receptor (Homo sapiens) (UniProt P06213). The test is described as follows: Binding affinity to wild-type human partial length INSR (P997 to E1318 residues) expressed in mammalian expression system assessed as residual binding level at 10 uM by Kinomescan method relative to control.
Test [13] addresses Tyrosine-protein kinase Tec (Homo sapiens) (UniProt P42680). The test is described as follows: Binding affinity to wild-type human partial length TEC (L341 to D620 residues) expressed in bacterial expression system assessed as residual binding level at 10 uM by Kinomescan method relative to control.
The target of test [14] is Fibroblast growth factor receptor 2 (Homo sapiens) (UniProt P21802). Briefly: Binding affinity to wild-type human partial length FGFR2 (D457 to E769 residues) expressed in bacterial expression system assessed as residual binding level at 10 uM by Kinomescan method relative to control.
In test [15] the target is Cyclin-dependent kinase 2 (Homo sapiens) (UniProt P24941). The test is described as follows: Binding affinity to wild-type human full length CDK2 (M1 to L298 residues) expressed in bacterial expression system assessed as residual binding level at 10 uM by Kinomescan method relative to control.
Test [16] deals with Mitogen-activated protein kinase kinase kinase 14 (Homo sapiens) (UniProt Q99558). Briefly: Binding affinity to wild-type human partial length NIK (L318 to P947 residues) expressed in mammalian expression system assessed as residual binding level at 10 uM by Kinomescan method relative to control.
Test [17] relates to Tyrosine-protein kinase ABL1 (Homo sapiens), P00519 [Y253F]. The test is described as follows: Binding affinity to human phosphorylated ABL1 Y253F mutant (S229 to K512 residues) expressed in mammalian expression system assessed as residual binding level at 10 uM by Kinomescan method relative to control.
The target in test [18] is SNF-related serine/threonine-protein kinase (Homo sapiens) (UniProt Q9NRH2). Briefly: Binding affinity to wild-type human partial length SNRK (M1 to E339 residues) expressed in mammalian expression system assessed as residual binding level at 10 uM by Kinomescan method relative to control.
Test [19] concerns the target LIM domain kinase 2 (Homo sapiens) (UniProt P53671). The test is described as follows: Binding affinity to wild-type human full length LIMK2 (M1 to P638 residues) expressed in bacterial expression system assessed as residual binding level at 10 uM by Kinomescan method relative to control.
Test [20] concerns the target Mitogen-activated protein kinase 15 (Homo sapiens) (UniProt Q8TD08). Briefly: Binding affinity to wild-type human partial length ERK8 (M1 to P437 residues) expressed in bacterial expression system assessed as residual binding level at 10 uM by Kinomescan method relative to control.
Test [21] has as its target 5'-AMP-activated protein kinase catalytic subunit alpha-1 (Homo sapiens) (UniProt Q13131). The test is described as follows: Binding affinity to wild-type human partial length AMPK alpha1 (M1 to E306 residues) expressed in bacterial expression system assessed as residual binding level at 10 uM by Kinomescan method relative to control.
In test [22] the target is NT-3 growth factor receptor (Homo sapiens) (UniProt Q16288). Briefly: Binding affinity to wild-type human partial length TRKC (Q531 to G825 residues) expressed in mammalian expression system assessed as residual binding level at 10 uM by Kinomescan method relative to control.
In test [23] the target is Tyrosine-protein kinase Fyn (Homo sapiens) (UniProt P06241). Briefly: Binding affinity to wild-type human partial length FYN (T243 to L534 residues) expressed in bacterial expression system assessed as residual binding level at 10 uM by Kinomescan method relative to control.
In test [24] the test system is Hepatocyte growth factor receptor (Homo sapiens), P08581 [M1250T]. The test is described as follows: Binding affinity to human partial length MET M1250T mutant (D1010 to S1367 residues) expressed in bacterial expression system assessed as residual binding level at 10 uM by Kinomescan method relative to control.

Sequence of Tyrosine-protein kinase Tec (Homo sapiens) (P42680 whole entry, the tested form may be a part): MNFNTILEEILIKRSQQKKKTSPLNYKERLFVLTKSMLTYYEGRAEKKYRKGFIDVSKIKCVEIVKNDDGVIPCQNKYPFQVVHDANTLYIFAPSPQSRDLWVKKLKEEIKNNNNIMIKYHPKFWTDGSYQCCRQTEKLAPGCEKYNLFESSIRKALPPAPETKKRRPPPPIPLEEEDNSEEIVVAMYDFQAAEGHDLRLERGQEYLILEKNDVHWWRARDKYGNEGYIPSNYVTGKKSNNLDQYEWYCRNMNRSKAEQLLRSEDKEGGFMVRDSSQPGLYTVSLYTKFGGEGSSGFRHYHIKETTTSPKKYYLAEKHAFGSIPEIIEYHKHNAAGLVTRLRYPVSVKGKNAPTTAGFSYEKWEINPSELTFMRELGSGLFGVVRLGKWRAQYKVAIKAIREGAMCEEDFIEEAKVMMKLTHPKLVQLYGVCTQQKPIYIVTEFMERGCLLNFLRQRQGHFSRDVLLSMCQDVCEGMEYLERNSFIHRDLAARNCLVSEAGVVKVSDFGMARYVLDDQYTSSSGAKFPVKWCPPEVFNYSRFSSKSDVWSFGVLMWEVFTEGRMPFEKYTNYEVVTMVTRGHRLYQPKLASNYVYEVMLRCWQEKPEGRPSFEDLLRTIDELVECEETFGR
Sequence of Fibroblast growth factor receptor 2 (Homo sapiens) (P21802 22-821 limits assumed): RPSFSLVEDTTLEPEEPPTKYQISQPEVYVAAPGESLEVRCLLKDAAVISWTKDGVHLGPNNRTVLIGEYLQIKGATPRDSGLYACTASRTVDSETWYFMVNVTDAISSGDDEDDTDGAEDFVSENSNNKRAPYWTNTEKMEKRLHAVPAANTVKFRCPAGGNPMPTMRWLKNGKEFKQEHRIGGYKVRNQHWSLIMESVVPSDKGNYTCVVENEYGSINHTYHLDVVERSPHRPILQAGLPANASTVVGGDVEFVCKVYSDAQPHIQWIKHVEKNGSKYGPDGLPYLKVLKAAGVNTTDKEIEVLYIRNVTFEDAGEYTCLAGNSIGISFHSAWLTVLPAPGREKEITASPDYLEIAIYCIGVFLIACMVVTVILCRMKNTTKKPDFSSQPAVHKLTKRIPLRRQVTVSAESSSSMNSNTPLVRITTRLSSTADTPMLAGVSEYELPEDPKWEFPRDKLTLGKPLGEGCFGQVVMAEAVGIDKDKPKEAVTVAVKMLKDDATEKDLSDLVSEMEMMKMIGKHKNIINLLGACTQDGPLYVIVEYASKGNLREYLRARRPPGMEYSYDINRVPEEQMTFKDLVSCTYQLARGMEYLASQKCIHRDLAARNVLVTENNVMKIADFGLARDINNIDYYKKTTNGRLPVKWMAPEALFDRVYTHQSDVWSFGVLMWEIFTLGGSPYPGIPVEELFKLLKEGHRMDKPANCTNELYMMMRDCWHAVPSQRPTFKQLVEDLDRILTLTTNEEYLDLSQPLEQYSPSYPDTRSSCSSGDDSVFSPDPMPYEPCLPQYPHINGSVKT
Sequence of LIM domain kinase 2 (Homo sapiens) (P53671 whole entry, looked up, the tested form may be a part): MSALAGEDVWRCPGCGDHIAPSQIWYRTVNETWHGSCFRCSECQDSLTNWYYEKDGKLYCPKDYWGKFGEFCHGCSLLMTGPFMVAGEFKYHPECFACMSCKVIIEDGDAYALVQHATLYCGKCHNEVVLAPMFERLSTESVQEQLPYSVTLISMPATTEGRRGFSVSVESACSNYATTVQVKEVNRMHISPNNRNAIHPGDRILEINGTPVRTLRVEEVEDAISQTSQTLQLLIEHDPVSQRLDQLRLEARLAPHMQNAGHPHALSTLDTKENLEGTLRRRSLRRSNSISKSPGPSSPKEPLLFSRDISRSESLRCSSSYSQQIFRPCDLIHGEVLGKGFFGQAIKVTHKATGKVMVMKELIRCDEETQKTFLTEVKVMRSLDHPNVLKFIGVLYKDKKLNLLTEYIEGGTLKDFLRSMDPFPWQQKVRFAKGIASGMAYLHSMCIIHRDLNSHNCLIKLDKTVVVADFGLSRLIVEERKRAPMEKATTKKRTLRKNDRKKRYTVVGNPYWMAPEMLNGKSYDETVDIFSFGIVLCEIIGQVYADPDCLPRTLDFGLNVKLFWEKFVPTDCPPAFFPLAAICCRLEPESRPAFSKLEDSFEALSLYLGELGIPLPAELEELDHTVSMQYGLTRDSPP
Sequence of Tyrosine-protein kinase Fyn (Homo sapiens) (P06241 2-537 limits assumed): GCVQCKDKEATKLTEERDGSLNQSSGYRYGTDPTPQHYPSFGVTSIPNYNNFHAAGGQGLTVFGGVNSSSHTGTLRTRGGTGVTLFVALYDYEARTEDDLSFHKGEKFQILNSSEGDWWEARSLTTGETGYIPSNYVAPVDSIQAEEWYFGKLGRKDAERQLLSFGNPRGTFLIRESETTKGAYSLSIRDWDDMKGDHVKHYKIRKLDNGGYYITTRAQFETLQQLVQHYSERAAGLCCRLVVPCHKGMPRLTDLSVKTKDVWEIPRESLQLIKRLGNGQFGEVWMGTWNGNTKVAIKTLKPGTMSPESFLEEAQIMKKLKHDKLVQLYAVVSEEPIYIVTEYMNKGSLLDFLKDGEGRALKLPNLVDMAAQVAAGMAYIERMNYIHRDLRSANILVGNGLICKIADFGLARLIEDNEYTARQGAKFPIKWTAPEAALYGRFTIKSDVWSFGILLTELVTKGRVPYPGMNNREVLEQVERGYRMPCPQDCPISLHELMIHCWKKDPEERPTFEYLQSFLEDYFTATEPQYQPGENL
Sequence of Mitogen-activated protein kinase kinase kinase kinase 2 (Homo sapiens) (Q12851 whole entry, the tested form may be a part): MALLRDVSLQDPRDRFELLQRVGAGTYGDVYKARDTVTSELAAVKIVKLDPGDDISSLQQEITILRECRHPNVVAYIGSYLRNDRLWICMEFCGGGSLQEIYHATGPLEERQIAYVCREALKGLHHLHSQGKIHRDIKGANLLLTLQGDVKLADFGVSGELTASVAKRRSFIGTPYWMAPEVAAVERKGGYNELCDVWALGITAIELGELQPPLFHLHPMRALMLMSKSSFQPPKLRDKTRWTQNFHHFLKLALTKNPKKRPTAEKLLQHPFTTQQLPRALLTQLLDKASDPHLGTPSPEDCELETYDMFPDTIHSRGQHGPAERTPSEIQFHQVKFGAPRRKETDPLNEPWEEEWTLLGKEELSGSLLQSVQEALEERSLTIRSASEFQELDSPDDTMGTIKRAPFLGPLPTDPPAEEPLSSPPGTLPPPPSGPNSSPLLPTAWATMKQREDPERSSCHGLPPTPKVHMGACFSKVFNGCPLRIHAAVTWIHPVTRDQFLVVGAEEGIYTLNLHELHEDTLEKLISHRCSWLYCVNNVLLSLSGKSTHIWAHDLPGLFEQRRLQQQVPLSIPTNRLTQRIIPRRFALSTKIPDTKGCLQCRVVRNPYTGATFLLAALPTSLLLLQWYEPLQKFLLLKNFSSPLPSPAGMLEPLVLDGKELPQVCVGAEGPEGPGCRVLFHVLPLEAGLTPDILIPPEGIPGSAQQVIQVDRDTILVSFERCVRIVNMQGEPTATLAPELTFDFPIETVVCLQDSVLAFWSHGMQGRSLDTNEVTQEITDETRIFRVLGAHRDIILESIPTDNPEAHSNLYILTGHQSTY
Sequence of Mitogen-activated protein kinase 15 (Homo sapiens) (Q8TD08 whole entry, the tested form may be a part): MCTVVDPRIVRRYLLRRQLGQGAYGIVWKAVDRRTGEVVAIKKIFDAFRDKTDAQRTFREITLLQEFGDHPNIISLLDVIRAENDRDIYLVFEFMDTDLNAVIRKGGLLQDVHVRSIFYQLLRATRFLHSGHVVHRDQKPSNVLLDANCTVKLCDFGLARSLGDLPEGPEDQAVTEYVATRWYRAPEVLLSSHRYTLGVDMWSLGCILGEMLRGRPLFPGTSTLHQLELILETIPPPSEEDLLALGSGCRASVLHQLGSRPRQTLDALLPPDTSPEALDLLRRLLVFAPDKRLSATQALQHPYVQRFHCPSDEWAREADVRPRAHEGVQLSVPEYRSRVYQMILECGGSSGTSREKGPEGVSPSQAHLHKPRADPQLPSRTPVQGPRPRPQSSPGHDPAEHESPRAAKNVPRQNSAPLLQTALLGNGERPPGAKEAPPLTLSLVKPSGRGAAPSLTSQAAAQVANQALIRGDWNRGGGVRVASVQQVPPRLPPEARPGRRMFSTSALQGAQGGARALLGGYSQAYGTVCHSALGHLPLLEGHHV
Sequence of Protein-tyrosine kinase 2-beta (Homo sapiens) (Q14289 whole entry, looked up, the tested form may be a part): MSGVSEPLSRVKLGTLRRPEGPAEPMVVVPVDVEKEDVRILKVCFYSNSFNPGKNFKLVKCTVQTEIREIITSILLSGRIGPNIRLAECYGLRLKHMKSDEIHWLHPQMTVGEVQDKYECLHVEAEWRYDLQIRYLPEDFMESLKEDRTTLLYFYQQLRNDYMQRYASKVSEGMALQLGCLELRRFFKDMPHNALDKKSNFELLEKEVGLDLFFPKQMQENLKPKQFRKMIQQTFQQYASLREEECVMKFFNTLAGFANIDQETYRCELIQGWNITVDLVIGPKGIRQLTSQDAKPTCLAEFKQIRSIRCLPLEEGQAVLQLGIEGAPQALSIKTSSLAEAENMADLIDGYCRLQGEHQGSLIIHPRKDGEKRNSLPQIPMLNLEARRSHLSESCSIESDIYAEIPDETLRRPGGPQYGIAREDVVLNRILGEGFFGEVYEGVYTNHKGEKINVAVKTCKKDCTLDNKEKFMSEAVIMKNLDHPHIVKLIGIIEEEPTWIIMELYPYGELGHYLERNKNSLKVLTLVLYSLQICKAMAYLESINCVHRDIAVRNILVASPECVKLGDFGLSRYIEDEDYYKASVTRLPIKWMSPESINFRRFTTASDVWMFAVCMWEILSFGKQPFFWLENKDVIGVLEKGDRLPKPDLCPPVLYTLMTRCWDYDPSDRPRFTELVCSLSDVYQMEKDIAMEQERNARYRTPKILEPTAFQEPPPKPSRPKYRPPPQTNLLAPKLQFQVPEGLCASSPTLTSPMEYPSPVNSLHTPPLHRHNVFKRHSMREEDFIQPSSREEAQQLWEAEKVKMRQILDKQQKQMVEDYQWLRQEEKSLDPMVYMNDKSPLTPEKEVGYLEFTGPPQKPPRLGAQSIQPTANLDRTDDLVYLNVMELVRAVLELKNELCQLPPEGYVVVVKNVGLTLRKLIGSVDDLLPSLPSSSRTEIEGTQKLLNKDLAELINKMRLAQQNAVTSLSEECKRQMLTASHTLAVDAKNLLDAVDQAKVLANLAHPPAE

Take `CC(C)N1C(=O)C(NCCCN(C)C)=C(c2cn(C)c3ccccc23)C1=O.Cl`: the Activity is 98% in [1]; 85% in test [2]; 99% in [3]; 87% in [4]; 91% in test [5]; 100% in test [6]. Moreover, the Activity amounted to 82% in [7]; 71% in test [8]; 100% in test [9]; 91% in test [10]; 100% in test [11]; 100% in test [12]. The Activity in test [13] is 99%; in test [14], 100%; in test [15], 92%; in [16], 93%; in [17], 98%; in [18], 91%. The Activity is 93% in test [19]; 95% in [20]; 93% in test [21]; 100% in [22]; 100% in [23]; 100% in test [24].
